Experimental findings from patent publication US10927075B2, “Compositions and methods relating to the treatment of cancer, autoimmune disease, and neurodegenerative disease” (THE JACKSON LABORATORY, priority 2014, dated 2021) are described below.

Assay [1] deals with primary, activated WT versus AID−/− cells. Description: RNASeq and Ingenuity Pathways Analysis. It is filed as cell-based, mouse. As to conditions: 100 nM, 60 hours after activation. The procedure: FIG. 17A depicts a schematic for the fold-change (FC) analysis performed on RNASeq data from the indicated treatment groups. RNA was prepared from cells 60 hours after activation (αCD40 and IL-4) and treatment with DMSO or 100 nM C-1523. Pathway analysis was performed by Ingenuity Pathway Analysis (IPA). FIGS. 17B-17D depict the top 10 pathways for the Unique to FC1 (FIG. 17B) and FC2 (FIG. 17C) analysis and all pathways for the FC1>FC2 (DOWN) and F2>FC1 (UP) analysis (FIG. 17D). Within each bar (in white), is the ratio of genes from that pathway implicated by IPA. The dashed line indicates the 0.05 significance threshold for significant (bars crossing it) vs non-significant pathways. The mechanism of cell death is non-apoptotic and is via mitotic catastrophe.
C-1523 induces non-apoptotic cell death via non-apoptotic mitotic catastrophe. The surprising lack of apoptotic cell death induced by C-1523 prompted us to evaluate gene expression signatures to identify other potential cell death pathways. […]
RNASeq Analysis. […] The filtered and trimmed reads were then aligned to mm10 using tophat (v2.0.7). The aligned bam file was then passed through Cufflinks (v2.0.2) and reads per gene are counted using htseq-count. edgeR. […]

Assay [2] relates to primary, AID expressing B-cells. The assay is described as follows: Live cell imaging of nuclei fragmentation. It is filed as cell-based, mice. As to conditions: 100 nM, individual cell imaged at 20 minute intervals. Here is the method:
FIG. 22 depicts live cell imaging of primary, AID expressing B-cells treated with 100 nM C-1523. Histone H2B-EGFP transgenic mice were used as a source of B-cells to facilitate imaging of chromatin. The top panel depicts an individual cell imaged at 20 minute intervals for 460 minutes. Images show chromosomal fragmentation commencing at 120 minutes. Data in the bottom panels depict quantification of live cell imaging depicting the fraction of cells that commence fragmentation at each time point (bottom left panel) and the cumulative fraction of fragmented nuclei (bottom right panel).
AID+/+ or AID−/− B-cells were cultured with 100 nM and cell cycle profiles were determined by propidium iodide staining and flow cyotmetry at intervals up to 96 hours. Non-activated (CD40) cells were used as a negative control; activated cells treated with the microtuble poison colcemid (ACT+colcemid) were used as a positive control. Nuclei fragmentation analysis of primary, AID expressing B-cells treated with 100 nM C-1523 was conducted (FIG. 22).

For another assay, the system named is MEC-2 cells. Description: Viability of human B cell tumor cell line (Trypan Blue). It is filed as cell-based. Here is the method:
(§1) FIG. 15A depicts an analysis of primary WT (AID+/+, closed markers) and AID−/− (open markers) murine B cell proliferation under activating conditions (αCD40 and IL-4 on days 0 and 2) and treated with the indicated doses of C-1523 for 4 days. Measurement of cell proliferation was determined by Trypan Blue staining and counting of viable, non-staining, cells via hemocytometer. Data are represented as the mean cell count for each condition. FIG. 15B depicts data from experiments in which primary B cells from A were stained with PI on day 4 and analyzed via flow cytometry for the percentage of cells that were non-viable, PI-positive (PI+). FIG. 15C depicts RT-PCR analysis of AID expression in cultured human cell lines. Water (H2O) and RNA from HEK293T cells were employed as negative controls for template and AID expression, respectively, and human activated B lymphocyte RNA (Stim B) was used as a positive control. GAPDH expression was included as a loading control. FIG. 15D depicts viability analysis of CCRF-SB, MEC-1, and MEC-2 cells after 6 days in culture with the indicated concentrations of C-1523, 150 μM DIDS, or DMSO vehicle. Viability was determined by Trypan Blue staining and counting via hemocytometer. FIG. 15E depicts representative immunofluorescence images of phosphorylated γH2AX (green) and nuclei (DAPI, blue) in primary murine splenic B cells from AID−/− (left) or AID+/+ (WT, right) mice. Cells were activated with αCD40 and IL-4 and treated with 100 nM C-1523 for 3 d. Scale bars, 10 μM. FIG. 15F depicts quantitation of foci observed in AID−/− and WT cells represented in FIG. 15E. Data were grouped into categories of cells with low (1-2 foci per nucleus), moderate (3-10 foci per nucleus), or high (>10 foci per nucleus) amounts of DNA damage. Error bars represent the SEM for three independent experiments.
(§2) FIG. 23 depicts graphs of viability analysis for human cancer cell lines treated with C-1523. The acute lymphoblastic leukemia (ALL) line CCRF-SB and the chronic lymphocytic leukemia lines MEC1 and MEC2 were treated with vehicle (DMSO) or 100 nM C-1523, and viability was measured by Tyrpan blue exclusion. All three lines express AID and are sensitive to C-1523 treatment.
(§3) The effect of C-1523 on the viability of AID-expressing human B cell tumor cell lines was further tested ([…]). CCRF-SB is an acute lymphoblastic leukemia cell line derived from a buffy coat preparation (Foley et al., 1968). MEC-1 and MEC-2 are cell lines derived from a patient with chronic lymphocytic leukemia at two different timepoints (before and after fludarabine and rituximab therapy) (Stacchini et al., 1999). C-1523 was tested in these cell lines over a dose range from 1 to 1000 nM, in log increments, and compared to 150 μM DIDS. […] Biphasic or hormetic responses for small molecules can reflect a number of biochemical/biological mechanisms (Calabrese, 2013).
(§4) Cell lines and cell culture. […] Immunofluorescence.

The subject of the next assay is MEC-1 cells. Described as above. It is filed as cell-based. Here is the method: as §1, §2, §3, §4

Structures are written as SMILES.

Consider `CC(=O)Nc1ccc(/C=C/c2ccc(NC(=S)NC(C)C)cc2S(=O)(=O)O)c(S(=O)(=O)O)c1` [C-1523, (E)-5-acetamido-2-(4-(3-isopropylthioureido)-2-sulfonatostyryl)benzenesulfonate], for which the “most significantly altered pathways (IPA)” value in assay [1] was “did not identify any previously annotated cell death pathways”. In addition, the “time at which chromosomal fragmentation commences” value in assay [2] stood at 120 min. Also, the “sensitivity (viability)” value with MEC-2 cells (100 nM) and with MEC-1 cells (100 nM) was “sensitive” in each case. The “viability response over dose range” value with MEC-2 cells (1 to 1000 nM, 6 days) is recorded as “sensitive at all doses tested”; in the assay with MEC-1 cells (1 to 1000 nM, 6 days), “dose-dependent viability response”. The “viability reduction at highest dose” value in the assay with MEC-1 cells (1000 nM) was “less than that observed after treatment with 100 nM”. Further, in the assay on MEC-1 cells (1 to 1000 nM), the “concentration of greatest viability reduction” value was found to be 100 nM.
